Active and inactive are the calls of the source. No cut-off for these calls is given here.
How the values were obtained:
[1] = target: Muscarinic acetylcholine receptor M1 (Homo sapiens) (UniProt P11229); assay: M1 Eurofins-Cerep binding assay; set-up: ligand concentration 2 nM; details: filed as antagonist, Compound concentration 10.0 uM
Rattus norvegicus [2] = organism: Rattus norvegicus; assay: alpha 1 (non-selective) Eurofins-Cerep binding assay; assay type: protein assay; set-up: ligand concentration 0.25 nM; details: filed as antagonist, Compound concentration 10.0 uM
[3] = target: Sodium-dependent noradrenaline transporter (Homo sapiens) (UniProt P23975); assay: norepinephrine transporter Eurofins-Cerep binding assay; set-up: ligand concentration 1 nM; details: filed as antagonist, Compound concentration 10.0 uM
[4] = target: Muscarinic acetylcholine receptor M3 (Homo sapiens) (UniProt P20309); assay: M3 Eurofins-Cerep binding assay; set-up: ligand concentration 0.2 nM; details: filed as antagonist, Compound concentration 10.0 uM
Muscarinic acetylcholine receptor M3 (Homo sapiens), sequence (P20309 whole entry, looked up): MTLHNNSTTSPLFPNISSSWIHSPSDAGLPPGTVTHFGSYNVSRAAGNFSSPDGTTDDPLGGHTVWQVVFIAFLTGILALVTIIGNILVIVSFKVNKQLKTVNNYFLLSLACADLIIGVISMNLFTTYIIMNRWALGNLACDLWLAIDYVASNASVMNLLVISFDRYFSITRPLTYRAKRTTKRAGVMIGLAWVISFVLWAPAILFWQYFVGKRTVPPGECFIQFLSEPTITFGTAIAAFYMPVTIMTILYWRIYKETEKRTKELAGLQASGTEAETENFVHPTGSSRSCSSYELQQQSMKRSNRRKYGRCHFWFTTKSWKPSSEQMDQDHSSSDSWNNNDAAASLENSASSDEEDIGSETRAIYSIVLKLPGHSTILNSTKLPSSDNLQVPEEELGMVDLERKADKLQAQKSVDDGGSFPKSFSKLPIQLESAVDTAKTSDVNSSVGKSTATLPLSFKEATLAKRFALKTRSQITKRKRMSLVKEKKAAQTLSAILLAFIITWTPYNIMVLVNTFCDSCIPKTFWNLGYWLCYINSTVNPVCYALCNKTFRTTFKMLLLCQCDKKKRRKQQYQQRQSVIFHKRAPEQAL

[5] = target: cGMP-dependent 3',5'-cyclic phosphodiesterase (Homo sapiens, UniProt O00408); assay: Scintillation proximity assay (PDE2A) ( Mean (95% Confidence Interval) = 0.8 -1 nM; Ki = 0.7 nM)
[6] = target: Delta-type opioid receptor (Homo sapiens) (UniProt P41143); assay: delta (DOP) Eurofins-Cerep binding assay; set-up: ligand concentration 0.5 nM; details: filed as agonist, Compound concentration 10.0 uM
Delta-type opioid receptor (Homo sapiens), sequence (P41143 whole entry): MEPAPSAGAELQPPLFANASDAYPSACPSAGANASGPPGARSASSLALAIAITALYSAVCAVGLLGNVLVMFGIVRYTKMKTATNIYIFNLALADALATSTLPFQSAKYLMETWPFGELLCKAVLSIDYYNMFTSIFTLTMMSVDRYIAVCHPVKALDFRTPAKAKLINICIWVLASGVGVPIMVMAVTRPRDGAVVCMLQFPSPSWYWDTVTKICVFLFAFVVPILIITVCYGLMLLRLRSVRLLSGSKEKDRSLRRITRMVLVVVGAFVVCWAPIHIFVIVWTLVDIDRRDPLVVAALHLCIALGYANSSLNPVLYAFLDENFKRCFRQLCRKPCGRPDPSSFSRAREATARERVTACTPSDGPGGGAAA

[7] = target: 5-hydroxytryptamine receptor 2B (Homo sapiens) (UniProt P41595); assay: 5-HT2B Eurofins-Cerep binding assay; details: filed as agonist, Compound concentration 10.0 uM
5-hydroxytryptamine receptor 2B (Homo sapiens), sequence (P41595 whole entry): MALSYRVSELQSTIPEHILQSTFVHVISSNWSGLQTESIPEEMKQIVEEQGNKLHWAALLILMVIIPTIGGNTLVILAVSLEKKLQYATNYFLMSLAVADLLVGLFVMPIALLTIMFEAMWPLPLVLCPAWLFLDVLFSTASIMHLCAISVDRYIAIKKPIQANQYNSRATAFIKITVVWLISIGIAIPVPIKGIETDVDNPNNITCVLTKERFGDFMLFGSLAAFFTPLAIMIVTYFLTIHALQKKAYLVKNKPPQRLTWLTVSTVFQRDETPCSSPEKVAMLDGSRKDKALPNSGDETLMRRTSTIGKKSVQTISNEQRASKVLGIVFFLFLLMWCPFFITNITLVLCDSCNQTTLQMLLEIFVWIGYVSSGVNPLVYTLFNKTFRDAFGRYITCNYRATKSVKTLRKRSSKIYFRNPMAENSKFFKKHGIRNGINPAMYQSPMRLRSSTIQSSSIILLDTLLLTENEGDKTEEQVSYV

[8] = target: 3',5'-cyclic-AMP phosphodiesterase 4D (Homo sapiens, UniProt Q08499); assay: IC50 of hPDE4D3 in the PDE screen at 1.0 µM
3',5'-cyclic-AMP phosphodiesterase 4D, sequence (Q08499 whole entry): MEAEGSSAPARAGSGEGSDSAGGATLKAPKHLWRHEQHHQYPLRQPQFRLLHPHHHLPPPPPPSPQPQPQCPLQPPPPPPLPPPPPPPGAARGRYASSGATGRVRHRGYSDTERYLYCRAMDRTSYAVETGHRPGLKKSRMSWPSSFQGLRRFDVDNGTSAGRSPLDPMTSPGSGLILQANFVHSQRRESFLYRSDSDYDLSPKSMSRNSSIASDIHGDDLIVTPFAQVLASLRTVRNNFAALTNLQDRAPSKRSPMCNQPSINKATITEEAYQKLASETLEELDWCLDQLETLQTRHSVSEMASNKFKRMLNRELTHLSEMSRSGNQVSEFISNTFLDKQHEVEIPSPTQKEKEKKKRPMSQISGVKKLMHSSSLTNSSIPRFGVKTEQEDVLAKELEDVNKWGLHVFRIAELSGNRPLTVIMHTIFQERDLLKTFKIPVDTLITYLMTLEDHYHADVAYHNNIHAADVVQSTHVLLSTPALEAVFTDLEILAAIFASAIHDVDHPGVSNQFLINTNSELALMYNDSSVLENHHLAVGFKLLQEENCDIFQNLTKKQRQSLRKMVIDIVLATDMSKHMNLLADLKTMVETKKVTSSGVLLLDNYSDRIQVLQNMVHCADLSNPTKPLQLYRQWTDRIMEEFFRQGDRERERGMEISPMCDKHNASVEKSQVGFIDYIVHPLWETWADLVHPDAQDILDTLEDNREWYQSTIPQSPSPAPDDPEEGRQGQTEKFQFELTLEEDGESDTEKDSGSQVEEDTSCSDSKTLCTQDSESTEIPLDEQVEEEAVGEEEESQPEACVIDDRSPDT

Rattus norvegicus [9] = organism: Rattus norvegicus; assay: KV channel Eurofins-Cerep binding assay; set-up: ligand concentration 0.01 nM; details: filed as antagonist, Compound concentration 10.0 uM
[10] = target: cGMP-dependent 3',5'-cyclic phosphodiesterase (Rattus norvegicus) (UniProt Q01062); assay: Target occupancy in striatum ( p.o.dose, 1 h); assay type: organism-based
[11] = target: 5-hydroxytryptamine receptor 7 (Homo sapiens) (UniProt P34969); assay: 5-HT7 Eurofins-Cerep binding assay; set-up: ligand concentration 4 nM; details: filed as agonist, Compound concentration 10.0 uM
Rattus norvegicus [12] = organism: Rattus norvegicus; assay: Ca2+ channel (L,verapamil site) (phenylalkylamine) Eurofins-Cerep binding assay; assay type: protein assay; set-up: ligand concentration 3 nM; details: filed as antagonist, Compound concentration 10.0 uM
[13] = target: Cholecystokinin receptor type A (Homo sapiens) (UniProt P32238); assay: CCK1 (CCKA) Eurofins-Cerep binding assay; set-up: ligand concentration 0.08 nM; details: filed as agonist, Compound concentration 10.0 uM
[14] = target: Vasoactive intestinal polypeptide receptor 1 (Homo sapiens) (UniProt P32241); assay: VPAC1 (VIP1) Eurofins-Cerep binding assay; set-up: ligand concentration 0.04 nM; details: filed as agonist, Compound concentration 10.0 uM
[15] = target: High affinity cGMP-specific 3',5'-cyclic phosphodiesterase 9A (Homo sapiens, UniProt O76083); assay: IC50 of hPDE9A in the PDE screen at 1.0 µM
[16] = target: D(2) dopamine receptor (Homo sapiens) (UniProt P14416); assay: D2S (h) Eurofins-Cerep binding assay; set-up: ligand concentration 0.3 nM; details: filed as antagonist, Compound concentration 10.0 uM
D(2) dopamine receptor (Homo sapiens), sequence (P14416 whole entry): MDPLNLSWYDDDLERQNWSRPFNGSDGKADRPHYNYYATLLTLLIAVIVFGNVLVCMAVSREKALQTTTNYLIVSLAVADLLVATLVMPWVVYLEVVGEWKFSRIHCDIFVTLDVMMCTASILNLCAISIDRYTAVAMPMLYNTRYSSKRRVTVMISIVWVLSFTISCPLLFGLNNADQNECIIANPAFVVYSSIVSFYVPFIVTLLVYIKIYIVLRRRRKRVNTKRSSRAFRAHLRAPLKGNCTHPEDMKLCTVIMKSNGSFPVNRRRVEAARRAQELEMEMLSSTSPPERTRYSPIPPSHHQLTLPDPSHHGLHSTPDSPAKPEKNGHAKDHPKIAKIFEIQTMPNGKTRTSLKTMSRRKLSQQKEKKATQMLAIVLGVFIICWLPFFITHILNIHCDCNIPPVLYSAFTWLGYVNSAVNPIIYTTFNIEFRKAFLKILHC

[17] = target: C-C chemokine receptor type 1 (Homo sapiens) (UniProt P32246); assay: CCR1 Eurofins-Cerep binding assay; set-up: ligand concentration 0.01 nM; details: filed as agonist, Compound concentration 10.0 uM
Mus musculus = organism: Mus musculus; assay: sst (non-selective) Eurofins-Cerep binding assay; assay type: protein assay; set-up: ligand concentration 0.05 nM; details: filed as agonist, Compound concentration 10.0 uM
[18] = target: Neuromedin-K receptor (Homo sapiens) (UniProt P29371); assay: NK3 Eurofins-Cerep binding assay; set-up: ligand concentration 0.4 nM; details: filed as antagonist, Compound concentration 10.0 uM
[19] = target: 5-hydroxytryptamine receptor 1B (Homo sapiens) (UniProt P28222); assay: 5-HT1B Eurofins-Cerep binding assay; set-up: ligand concentration 1 nM; details: filed as antagonist, Compound concentration 10.0 uM
[20] = target: 5-hydroxytryptamine receptor 1A (Homo sapiens) (UniProt P08908); assay: 5-HT1A Eurofins-Cerep binding assay; set-up: ligand concentration 0.5 nM; details: filed as agonist, Compound concentration 10.0 uM
[21] = target: High affinity 3',5'-cyclic-AMP phosphodiesterase 7A (Homo sapiens, UniProt Q13946); assay: IC50 of hPDE7A1 in the PDE screen at 1.0 µM
High affinity 3',5'-cyclic-AMP phosphodiesterase 7A, sequence (Q13946 whole entry): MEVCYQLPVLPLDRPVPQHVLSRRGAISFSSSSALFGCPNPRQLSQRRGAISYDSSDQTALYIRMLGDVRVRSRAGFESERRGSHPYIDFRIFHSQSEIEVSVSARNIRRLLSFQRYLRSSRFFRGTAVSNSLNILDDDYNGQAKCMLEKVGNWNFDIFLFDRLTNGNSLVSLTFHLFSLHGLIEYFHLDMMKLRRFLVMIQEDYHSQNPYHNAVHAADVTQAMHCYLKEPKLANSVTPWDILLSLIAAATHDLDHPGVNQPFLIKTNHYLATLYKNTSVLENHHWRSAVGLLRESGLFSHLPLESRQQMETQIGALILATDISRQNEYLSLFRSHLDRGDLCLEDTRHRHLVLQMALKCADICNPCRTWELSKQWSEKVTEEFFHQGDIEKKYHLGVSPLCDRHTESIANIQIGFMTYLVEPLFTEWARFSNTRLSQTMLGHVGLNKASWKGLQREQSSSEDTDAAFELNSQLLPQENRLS

[22] = target: 5-hydroxytryptamine receptor 6 (Homo sapiens) (UniProt P50406); assay: 5-HT6 Eurofins-Cerep binding assay; set-up: ligand concentration 2 nM; details: filed as agonist, Compound concentration 10.0 uM
Rattus norvegicus [23] = organism: Rattus norvegicus; assay: Cl-channel (GABA-gated) Eurofins-Cerep binding assay; set-up: ligand concentration 3 nM; details: filed as antagonist, Compound concentration 10.0 uM
[24] = target: High affinity cAMP-specific and IBMX-insensitive 3',5'-cyclic phosphodiesterase 8A (Homo sapiens, UniProt O60658); assay: IC50 of hPDE8A1 in the PDE screen at 1.0 µM
[25] = target: Vasopressin V1a receptor (Homo sapiens) (UniProt P37288); assay: V1a Eurofins-Cerep binding assay; set-up: ligand concentration 0.3 nM; details: filed as agonist, Compound concentration 10.0 uM
Vasopressin V1a receptor (Homo sapiens), sequence (P37288 whole entry, looked up): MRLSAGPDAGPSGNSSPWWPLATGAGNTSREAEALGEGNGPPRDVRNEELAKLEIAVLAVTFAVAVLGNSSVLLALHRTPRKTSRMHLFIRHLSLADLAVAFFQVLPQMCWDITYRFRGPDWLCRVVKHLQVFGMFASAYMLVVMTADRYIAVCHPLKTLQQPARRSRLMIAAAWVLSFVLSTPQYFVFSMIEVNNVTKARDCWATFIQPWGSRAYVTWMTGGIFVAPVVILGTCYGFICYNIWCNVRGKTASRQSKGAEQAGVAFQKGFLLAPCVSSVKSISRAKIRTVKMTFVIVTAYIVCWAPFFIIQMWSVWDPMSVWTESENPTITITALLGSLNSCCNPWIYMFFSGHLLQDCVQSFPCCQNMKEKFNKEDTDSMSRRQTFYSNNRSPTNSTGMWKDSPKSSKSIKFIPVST

[26] = target: Mu-type opioid receptor (Homo sapiens) (UniProt P35372); assay: mu (MOP) Eurofins-Cerep binding assay; set-up: ligand concentration 0.5 nM; details: filed as agonist, Compound concentration 10.0 uM
[27] = target: Beta-1 adrenergic receptor (Homo sapiens) (UniProt P08588); assay: beta 1 Eurofins-Cerep binding assay; set-up: ligand concentration 0.3 nM; details: filed as agonist, Compound concentration 10.0 uM
Beta-1 adrenergic receptor (Homo sapiens), sequence (P08588 whole entry, looked up): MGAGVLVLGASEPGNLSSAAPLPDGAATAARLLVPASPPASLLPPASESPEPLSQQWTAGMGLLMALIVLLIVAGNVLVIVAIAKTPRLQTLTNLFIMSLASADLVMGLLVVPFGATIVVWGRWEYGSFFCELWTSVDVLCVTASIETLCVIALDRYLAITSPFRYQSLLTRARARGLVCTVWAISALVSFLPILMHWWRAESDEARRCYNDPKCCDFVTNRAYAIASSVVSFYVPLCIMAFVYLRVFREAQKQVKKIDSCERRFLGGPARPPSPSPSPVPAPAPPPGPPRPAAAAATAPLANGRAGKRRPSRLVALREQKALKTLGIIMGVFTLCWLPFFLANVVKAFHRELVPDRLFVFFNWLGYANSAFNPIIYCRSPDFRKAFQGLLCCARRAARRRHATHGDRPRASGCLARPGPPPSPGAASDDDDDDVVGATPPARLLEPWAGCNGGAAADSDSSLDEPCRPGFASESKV

[28] = target: 5-hydroxytryptamine receptor 3A (Homo sapiens) (UniProt P46098); assay: 5-HT3 Eurofins-Cerep binding assay; set-up: ligand concentration 0.5 nM; details: filed as antagonist, Compound concentration 10.0 uM
5-hydroxytryptamine receptor 3A (Homo sapiens), sequence (P46098 whole entry): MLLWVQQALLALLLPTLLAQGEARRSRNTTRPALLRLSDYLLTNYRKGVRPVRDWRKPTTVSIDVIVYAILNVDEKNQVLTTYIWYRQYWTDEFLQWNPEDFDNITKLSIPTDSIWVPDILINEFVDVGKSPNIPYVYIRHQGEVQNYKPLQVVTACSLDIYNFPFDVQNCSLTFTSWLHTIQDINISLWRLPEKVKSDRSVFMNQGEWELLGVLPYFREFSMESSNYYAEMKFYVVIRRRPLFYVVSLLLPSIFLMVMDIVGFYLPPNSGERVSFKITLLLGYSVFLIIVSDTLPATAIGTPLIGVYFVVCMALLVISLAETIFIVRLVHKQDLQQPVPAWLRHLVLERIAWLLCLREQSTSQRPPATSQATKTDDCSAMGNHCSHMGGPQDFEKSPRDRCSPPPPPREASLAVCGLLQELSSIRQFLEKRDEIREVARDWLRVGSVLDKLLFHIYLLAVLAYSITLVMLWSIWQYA

[29] = target: Adenosine receptor A3 (Homo sapiens) (UniProt P0DMS8); assay: A3 Eurofins-Cerep binding assay; set-up: ligand concentration 0.15 nM; details: filed as agonist, Compound concentration 10.0 uM
Adenosine receptor A3 (Homo sapiens), sequence (P0DMS8 whole entry): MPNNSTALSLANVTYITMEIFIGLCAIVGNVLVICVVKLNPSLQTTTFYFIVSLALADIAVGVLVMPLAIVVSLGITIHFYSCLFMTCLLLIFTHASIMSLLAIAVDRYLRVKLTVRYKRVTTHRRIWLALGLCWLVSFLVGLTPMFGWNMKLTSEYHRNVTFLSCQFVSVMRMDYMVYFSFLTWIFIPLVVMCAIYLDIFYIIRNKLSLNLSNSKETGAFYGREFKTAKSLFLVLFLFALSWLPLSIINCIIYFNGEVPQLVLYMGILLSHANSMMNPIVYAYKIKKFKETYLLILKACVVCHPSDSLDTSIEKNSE

[30] = target: Histamine H1 receptor (Homo sapiens) (UniProt P35367); assay: H1 Eurofins-Cerep binding assay; set-up: ligand concentration 1 nM; details: filed as antagonist, Compound concentration 10.0 uM
[31] = target: D(1A) dopamine receptor (Homo sapiens) (UniProt P21728); assay: D1 Eurofins-Cerep binding assay; set-up: ligand concentration 0.3 nM; details: filed as antagonist, Compound concentration 10.0 uM

Cc1cc(C(=O)N2CC[C@@H](C)[C@H](c3cc(C(F)F)nc4ncnn34)C2)cc(C)n1
residual activity [1]: 92.8% | residual activity (Rattus norvegicus [2]): 104% | residual activity [3]: 99% | residual activity [4]: 103% | IC50 [5]: 0.0009 µM (active) | residual activity [6]: 90.2% | residual activity [7]: 118% | IC50 [8]: > 10 µM (not active) | residual activity (Rattus norvegicus [9]): 93.6% | ED50 [10]: 5.3 mg/kg | residual activity [11]: 105% | residual activity (Rattus norvegicus [12]): 96.6% | residual activity [13]: 104% | residual activity [14]: 111% | IC50 [15]: > 10 µM (not active) | residual activity [16]: 104% | residual activity [17]: 89.6% | residual activity (Mus musculus): 122% | residual activity [18]: 99.8% | residual activity [19]: 102% | residual activity [20]: 99% | IC50 [21]: > 10 µM (not active) | residual activity [22]: 100% | residual activity (Rattus norvegicus [23]): 102% | IC50 [24]: > 10 µM (not active) | residual activity [25]: 97.3% | residual activity [26]: 96% | residual activity [27]: 96.8% | residual activity [28]: 103% | residual activity [29]: 104% | residual activity [30]: 106% | residual activity [31]: 99.2%

— ChEMBL document CHEMBL5723585, “Data for DCP probe JNJ-54082730” (2024)
